Source: patent US20260200928A1, “THERAPEUTIC COMPOUNDS” (Sanofi, priority 2022, published 2026)

Each compound was assayed against T1, human IL-17A (Homo sapiens, UniProt Q16552) (assay: IL-17A AlphaLISA competition assay (block of IL-17A binding to its receptor IL-17RA)). Settings: mean IC50 (n≥2), block of IL-17A binding to IL-17RA.
T1 construct: purchased R&D Systems 7955-IL/CF
T1 sequence (Q16552 24-155): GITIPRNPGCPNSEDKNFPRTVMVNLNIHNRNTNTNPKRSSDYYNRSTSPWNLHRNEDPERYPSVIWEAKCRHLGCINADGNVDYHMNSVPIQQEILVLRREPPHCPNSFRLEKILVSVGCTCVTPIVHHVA
Protocol: The ability of the compounds to block binding of IL-17A to its receptor, IL-17RA, was analysed in a competition assay using AlphaLISA technology (Perkin Elmer). The assay is a bead based AlphaLISA where the IL-17RA is captured on the acceptor bead via an Fc tag and IL-17A is captured on the streptavidin donor bead via a biotinylated anti-IL17A antibody.
Assay buffer was prepared by adding 0.05% Tween-20 (v/v) and 0.1% BSA to Phosphate Buffered Saline (PBS). The assay was carried out in 384-well white low volume plates (Perkin Elmer #6008359). 10 μL of a 7.5 nM stock of human recombinant IL-17A (R&D Systems 7955-IL/CF) diluted in assay buffer was dispensed into the assay plate and compounds or DMSO vehicle control were added in a volume of 75 nL using an acoustic dispenser (Beckman). The compounds were pre-incubated with the IL-17A for 30 min at room temperature prior to addition of 5 μL of a 5 nM stock of human recombinant IL-17RA/Fc chimera (R&D Systems 177-IR-100) diluted in assay buffer. The IL-17A was incubated with the receptor for a further 90 minutes at room temperature before addition of 5 μL of a mixture of anti-human Fc IgG acceptor beads (75 μg/mL, Perkin Elmer AL1030) and anti-IL-17A biotin conjugated antibody (5 nM, Abcam, #ab155575) in assay buffer. After a further 30 min incubation at room temperature, 5 μL of streptavidin donor beads (75 μg/mL, Perkin Elmer 6760002S) were added and the plate was incubated for 3 h in the dark.
The AlphaLisa signal was measured using the PheraSTAR plate reader (BMG). Data were analysed using GeneData Screener and fitted to a 4-parameter logistic equation. The IC50 values were calculated using the DMSO vehicle as the negative control and a high concentration (4 μM) of a reference IL-17A inhibitor as the positive control. All compounds were analysed at least in duplicate (n≥2).

| Structure (SMILES) | IC50 [nM] |
| --- | --- |
| COCC(c1ccnc(NC(=O)[C@@H](NC(=O)c2ncsc2C#N)[C@H]2CC[C@H](C)CC2)c1)N1C[C@@H](C(F)(F)F)NC1=O (single isomer, unassigned) [Example 92] | 539 |
| COCC(c1ccnc(NC(=O)[C@@H](NC(=O)c2nnnn2C)[C@H]2CC[C@H](C)CC2)c1)N1C[C@@H](C(F)(F)F)NC1=O (single isomer, unassigned) [Example 93] | 341 |
| COCC(c1ccnc(NC(=O)[C@@H](NC(=O)c2nc(Br)ccc2C)[C@H]2CC[C@H](C)CC2)c1)N1C[C@@H](C(F)(F)F)NC1=O (single isomer, unassigned) [Example 94] | 4860 |
| COCC(c1ccnc(NC(=O)[C@@H](NC(=O)c2nc(Cl)ncc2C)[C@H]2CC[C@H](C)CC2)c1)N1C[C@@H](C(F)(F)F)NC1=O (single isomer, unassigned) [Example 95] | 5490 |
| COCC(c1ccnc(NC(=O)[C@@H](NC(=O)c2nccn2C)[C@H]2CC[C@H](C)CC2)c1)N1C[C@@H](C(F)(F)F)NC1=O (single isomer, unassigned) [Example 112] | 381 |
| COCC(NC(=O)CCC(F)(F)F)c1ccnc(NC(=O)[C@@H](NC(=O)OC(C)(C)C)C2CCC(F)(F)CC2)c1 (single isomer, unassigned) [Example 132] | 7700 |
| COCC(NC(=O)CCC(F)(F)F)c1ccnc(NC(=O)[C@@H](NC(=O)c2nonc2C2CC2)C2CCC(F)(F)CC2)c1 (single isomer, unassigned) [Example 134] | 1250 |
| COCC(NC(=O)CCC(F)(F)F)c1ccnc(NC(=O)[C@@H](NC(=O)c2ccnn2C)C2CCC(F)(F)CC2)c1 (single isomer, unassigned) [Example 136] | 252 |
| COCC(NC(=O)CCC(F)(F)F)c1ccnc(NC(=O)[C@@H](NC(=O)c2ccnn2C(C)C)C2CCC(F)(F)CC2)c1 (single isomer, unassigned) [Example 137] | 197 |
| CCn1nccc1C(=O)N[C@H](C(=O)Nc1cc(C(COC)NC(=O)CCC(F)(F)F)ccn1)C1CCC(F)(F)CC1 (single isomer, unassigned) [Example 138] | 164 |
| COCC(NC(=O)CCC(F)(F)F)c1ccnc(NC(=O)[C@@H](NC(=O)c2ccnn2C2CC2)C2CCC(F)(F)CC2)c1 (single isomer, unassigned) [Example 139] | 265 |
| COCC(NC(=O)CCC(F)(F)F)c1ccnc(NC(=O)[C@@H](NC(=O)c2nccn2C)C2CCC(F)(F)CC2)c1 (single isomer, unassigned) [Example 140] | 7370 |
| COCC(NC(=O)CCC(F)(F)F)c1ccnc(NC(=O)[C@@H](NC(=O)c2nccn2C(C)C)C2CCC(F)(F)CC2)c1 (single isomer, unassigned) [Example 141] | 646 |
| COCC(NC(=O)CCC(F)(F)F)c1ccnc(NC(=O)[C@@H](NC(=O)c2ccnn2CC2CC2)C2CCC(F)(F)CC2)c1 (single isomer, unassigned) [Example 142] | 203 |
| COCC(NC(=O)CCC(F)(F)F)c1ccnc(NC(=O)[C@@H](NC(=O)c2ccnn2C)C2CCC(F)(F)CC2)c1 (single isomer, unassigned) [Example 143] | 3230 |
| CCn1nccc1C(=O)N[C@H](C(=O)Nc1cc(C(COC)NC(=O)CCC(F)(F)F)ccn1)C1CCC(F)(F)CC1 (single isomer, unassigned) [Example 144] | 1830 |
| COCC(NC(=O)CCC(F)(F)F)c1ccnc(NC(=O)[C@@H](NC(=O)c2ccnn2C(C)C)C2CCC(F)(F)CC2)c1 (single isomer, unassigned) [Example 145] | 1360 |
| COCC(NC(=O)CCC(F)(F)F)c1ccnc(NC(=O)[C@@H](NC(=O)c2ccnn2C2CC2)C2CCC(F)(F)CC2)c1 (single isomer, unassigned) [Example 146] | 4450 |
| COCC(NC(=O)CCC(F)(F)F)c1ccnc(NC(=O)[C@@H](NC(=O)c2ccnn2CC2CC2)C2CCC(F)(F)CC2)c1 (single isomer, unassigned) [Example 147] | 828 |
| COCC(NC(=O)CCC(F)(F)F)c1ccnc(NC(=O)[C@@H](NC(=O)c2nccn2C(C)C)C2CCC(F)(F)CC2)c1 (single isomer, unassigned) [Example 148] | 8280 |
| COCC(c1ccnc(NC(=O)C(NC(=O)C(F)(F)c2ccc(C)cc2)C2CCC(C)CC2)c1)N1CC(C(F)(F)F)NC1=O (single isomer, unassigned) [Example 149] | 108 |
| O=C(N[C@H](C(=O)Nc1cc(C(C2CC2)N2C[C@@H](C(F)(F)F)NC2=O)ccn1)C1CCC(F)(F)CC1)c1nonc1C1CC1 (single isomer, unassigned) [Example 162, 4-Cyclopropyl-N—((S)-2-((4-((R or S)-cyclopropyl((S)-2-oxo-4-(trifluoromethyl)imidazolidin-1-yl)methyl)pyridin-2-yl)amino)-1-(4,4-difluorocyclohexyl)-2-oxoethyl)-1,2,5-oxadiazole-3-carboxamide] | 444 |

These reach a lower IC50. Values come first.

| IC50 [nM] | Structure (SMILES) |
| --- | --- |
| 82 | COCC(c1ccnc(NC(=O)[C@@H](NC(=O)Cc2cc(C)[nH]n2)[C@H]2CC[C@H](C)CC2)c1)N1C[C@@H](C(F)(F)F)NC1=O (single isomer, unassigned) [Example 114] |
| 77 | COCC(c1ccnc(NC(=O)[C@@H](NC(=O)c2nccn2C(C)C)[C@H]2CC[C@H](C)CC2)c1)N1C[C@@H](C(F)(F)F)NC1=O (single isomer, unassigned) [Example 115] |
| 18 | COCC(c1ccnc(NC(=O)[C@@H](NC(=O)c2nocc2C)[C@H]2CC[C@H](C)CC2)c1)N1C[C@@H](C(F)(F)F)NC1=O (single isomer, unassigned) [Example 120] |
| 23 | COCC(c1ccnc(NC(=O)[C@@H](NC(=O)c2nocc2C2CC2)[C@H]2CC[C@H](C)CC2)c1)N1C[C@@H](C(F)(F)F)NC1=O (single isomer, unassigned) [Example 121] |
| 82 | COCC(c1ccnc(NC(=O)[C@@H](NC(=O)c2ocnc2C)[C@H]2CC[C@H](C)CC2)c1)N1C[C@@H](C(F)(F)F)NC1=O (single isomer, unassigned) [Example 122] |
| 65 | COCC(c1ccnc(NC(=O)[C@@H](NC(=O)Cc2cc(C)no2)[C@H]2CC[C@H](C)CC2)c1)N1C[C@@H](C(F)(F)F)NC1=O (single isomer, unassigned) [Example 123] |
| 20 | CCn1nccc1C(=O)N[C@H](C(=O)Nc1cc(C(COC)N2C[C@@H](C(F)(F)F)NC2=O)ccn1)[C@H]1CC[C@H](C)CC1 (single isomer, unassigned) [Example 124] |
| 13 | CCc1nocc1C(=O)N[C@H](C(=O)Nc1cc(C(COC)N2C[C@@H](C(F)(F)F)NC2=O)ccn1)[C@H]1CC[C@H](C)CC1 (single isomer, unassigned) [Example 125] |
| 21 | COCC(c1ccnc(NC(=O)[C@@H](NC(=O)c2conc2C2CC2)[C@H]2CC[C@H](C)CC2)c1)N1C[C@@H](C(F)(F)F)NC1=O (single isomer, unassigned) [Example 126] |
| 73 | COCC(NC(=O)CCC(F)(F)F)c1ccnc(NC(=O)[C@@H](NC(=O)c2nonc2C2CC2)C2CCC(F)(F)CC2)c1 (single isomer, unassigned) [Example 133] |
| 61 | COCC(c1ccnc(NC(=O)[C@@H](NC(=O)C(F)(F)c2ccccc2)[C@H]2CC[C@H](C)CC2)c1)N1C[C@@H](C(F)(F)F)NC1=O (single isomer, unassigned) [Example 150] |
